Test results taken from patent US9867811B2, “Method of treating atherosclerosis in high triglyceride subjects” (NOVARTIS AG, priority 2011, dated 2018).
Read-outs that look alike come from different tables or passages of the source.

Columns and labels:
CETP = biological target: T1, CETP (Homo sapiens, UniProt P11597); assay: In vitro CETP activity assay in human plasma (serum pools of differing triglyceride level); format: biochemical; conditions: for IC50: human serum pool
T1 construct: Human serum samples were obtained from the Novartis Institutes for BioMedical Research donor program; tissue Novartis donor program; Bioreclamation (Westbury, N.Y.); Uniglobe (Reseda, Calif.); host or cells: pooled human donor serum
T1 sequence (P11597 18-493): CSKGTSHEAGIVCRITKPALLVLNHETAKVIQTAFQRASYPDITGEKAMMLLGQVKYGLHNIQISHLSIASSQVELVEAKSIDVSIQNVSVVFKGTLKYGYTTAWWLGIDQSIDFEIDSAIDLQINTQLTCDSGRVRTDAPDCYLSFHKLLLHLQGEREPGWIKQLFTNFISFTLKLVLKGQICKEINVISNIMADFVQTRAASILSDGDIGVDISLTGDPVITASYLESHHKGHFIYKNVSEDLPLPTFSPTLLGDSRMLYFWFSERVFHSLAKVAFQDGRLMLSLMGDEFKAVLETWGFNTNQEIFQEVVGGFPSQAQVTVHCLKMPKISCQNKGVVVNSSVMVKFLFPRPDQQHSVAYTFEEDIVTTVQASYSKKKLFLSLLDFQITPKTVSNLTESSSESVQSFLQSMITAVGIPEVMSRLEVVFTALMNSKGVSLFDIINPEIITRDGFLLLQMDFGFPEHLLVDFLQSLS
Method: Pro-apoA-1 containing microemulsion as a donor particle was prepared following previous report (J. Biol. Chem., 280:14918-22). Glyceryl trioleate (500 ug, Sigma-Aldrich, Cat. No. T7140), 3-sn-phosphatidylcholine (4680 ug, Sigma, Cat. No. P2772), and cholesteryl BODIPY FL 012 (2 mg, Invitrogen, CA, Cat. No. C-3927MP) were dissolved in 1.5 mL of chloroform. The solution was evaporated, and residual solvent was removed under vacuum for more than 1 hr at room temperature. The dried lipid mixture was dissolved in 7 ml of the assay buffer (50 mM Tris-HCl (pH 7.4) containing 150 mM NaCl and 2 mM EDTA) and sonicated in water bath for 1 hr. The solution was split into two tubes of 3.5 ml each. Each tube was sonicated at 50° C. with a microtip (MICROSON™ ULTRASONIC CELL DISRUPTOR, Misonix, Farmingdale, N.Y.) at output power 006 for 10 min (every other 25 seconds). The solution was cooled to 40° C. and 400 ug of pro-apoA-1 was added to each tube (total volume of 4 mL). Then, the solution was sonicated at output power 004 for 20 min (every other 30 seconds). Final Concentration: Glyceryl Tiroleate: 62.5 ug/ml, PC: 585 ug/ml, Bodipy CE: 250 ug/ml, Pro-apoA-1: 100 ug/ml. Centrifuge solution at 5200×g for 5 minutes and store the supernatant at 4′C.
Human serum samples were obtained from the Novartis Institutes for BioMedical Research donor program (normal triglyceride samples) or purchased from Bioreclamation (Westbury, N.Y.) or Uniglobe (Reseda, Calif.). General requirements for human serum donors included: male gender, 20-55 years of age, not currently on a lipid altering medication, non-fasting at time of blood collection, and a total cholesterol level between 200-300 mg/dL. Donor samples were selected primarily on the basis of serum triglyceride level, using the following classifications: normal triglycerides (<150 mg/dL); high triglycerides (300-500 mg/dL); and very high triglycerides (750-1200 mg/dL). A total of 4 individual serum samples from each classification were used in these experiments. For each of the 3 triglyceride classifications, two serum sample pools were prepared. The mean plasma triglyceride concentrations (mg/dL) for the pools were: Normal: 101.35; High: 347.5; Very high 1, 868.45; Very high 2, 1269.35.
Donor solution is prepared by a dilution of donor microemulsion with assay buffer (1.7 ul donor+8.3 ul Buffer). Human serum (25 μL), assay buffer (14 μL) and 50× test compound dissolved in 100% dimethylsulfoxide (1 μL) are added to each well of 384 well black, clear-bottom plate (NUNC. Thermo Fisher #242764). The reaction is started by the addition of donor solution (10 μL) into each well. Fluorescence intensities are measured every 10 min at 37° C. with excitation wave length of 485 nm and emission wavelength of 515 nm over an 80 minute period, using a SpectraMax M5 from Molecular Devices (Sunnyvale, Calif.). The CETP activity (RFU/min) is defined as the change of fluorescence intensity from 40 to 70 min. Percent CETP inhibition is calculated as follows: ((100% Act−Wellcmpnd)/100% Act))*100. IC50 values were calculated with GraphPad Prism 5 software.

[1] = Plasma drug concentration in cynomolgus monkeys on chow or high carbohydrate diet; format: in vivo; conditions: Example 8 3 mg/kg, Anacetrapib 10 mg/kg, mean ± SD; for Plasma [drug] ng/mL, Day 7, Chow / Plasma [drug] ng/mL, Day 14, Chow: chow diet; for Plasma [drug] ng/mL, Day 7, Chow / Plasma [drug] ng/mL, Day 7, High CHO: day 7, daily oral; for Plasma [drug] ng/mL, Day 14, Chow / Plasma [drug] ng/mL, Day 14, High CHO: day 14, daily oral; for Plasma [drug] ng/mL, Day 7, High CHO / Plasma [drug] ng/mL, Day 14, High CHO: high carbohydrate diet
Text: Normal male cynomolgus monkeys (n=17) weighing between 8-14 kg are placed on a high-carbohydrate, low-fat diet. The caloric composition of the diet is approximately 13.4% protein, 79.1% carbohydrate (sugar to starch ratio 50:50) and 7.5% fat. Calories are derived from standard monkey chow (LabDiet® 5047, PMI, Richmond, Ind. or LabDiet® 5000, Balanced Fiber diet, PMI, Richmond, Ind.) in quantities necessary to meet the protein and fat requirements, with the remaining calories provided by sugar-sweetened cereals, candies, and fruit (banana, orange, cantaloupe, honeydew, pineapple). The high-carbohydrate (CHO) diet will be fed for 18 days (4 days of pre-drug diet, 14 days of drug treatment), after which time they will return to their regular chow diets for a 14 day washout period followed by a second 14 day dosing phase of the study (normal diet).
Compound of Example 8 is dissolved at 30 mg/mL in 1M NaOH+ethanol:maisoel glyceride:propylene glycol:cremophor RH40 (10:36:9:45) and diluted 1:10 in ddH2O. […] The formulations are prepared each day (weekend doses are prepared on Friday) and stored stirring and protected from light at room temperature until dosing. Artificial flavor and color will be added to the dose when prepared.
The animals will ingest the compounds (1 mL/kg) voluntarily from a plastic syringe offered at their home cage at approximately 8 am daily. Animals will be fed 60 minutes after the dose is administered.
Blood collection will take place weekly during each dosing phase. Animals are fasted overnight (approximately 16 hours) prior to blood collection. Blood samples are collected from a saphenous vein via needle and syringe and put into 2 mL EDTA-coated tubes that are immediately placed on ice until centrifugation. Samples are centrifuged at 3,000 rpm for 20 minutes. The plasma is collected, divided into aliquots (listed below), and stored at −70° C. until analysis.

Structure (SMILES) | Retention of CETP inhibitory activity in plasma from hypertriglyceridemic human subjects (CETP; in vitro, plasma from subjects with elevated triglycerides) | Plasma [drug] ng/mL, Day 7, Chow [1] [ng/mL] | Plasma [drug] ng/mL, Day 14, Chow [1] [ng/mL] | Plasma [drug] ng/mL, Day 7, High CHO [1] [ng/mL] | Plasma [drug] ng/mL, Day 14, High CHO [1] [ng/mL] | IC50 (CETP; TG = 101.35 mg/dL (normal), read-out: CETP IC50 (nM) TG = 101.35 mg/dL) [nM] | IC50 (CETP; TG = 374.5 mg/dL (high), read-out: CETP IC50 (nM) TG = 374.5 mg/dL) [nM] | IC50 (CETP; TG = 1269.35 mg/dL (very high 2), read-out: CETP IC50 (nM) TG = 1269.35 mg/dL) [nM]
COc1cc(F)c(C(C)C)cc1-c1ccc(C(F)(F)F)cc1CN1C(=O)O[C@H](c2cc(C(F)(F)F)cc(C(F)(F)F)c2)[C@@H]1C [Anacetrapib, reference compound] | does not retain its potency | 272 ± 74 | 320 ± 93 | 1836 ± 3694 | 1437 ± 2935 |  |  | 
CC[C@@H]1C[C@H](N(Cc2cc(C(F)(F)F)cc(C(F)(F)F)c2)c2ncc(-c3cnn(C)c3)cn2)C[C@H](CC)N1C(=O)O[C@H]1CC[C@H](C(=O)O)CC1 [Example 8] |  | 983 ± 408 | 1015 ± 398 | 1706 ± 949 | 1709 ± 800 | 88.4 | 51.9 | 61.4
